Laboratory results: paper PMC9860317, “Regulation of the DEAH/RHA helicase Prp43 by the G-patch factor Pfa1” (Proceedings of the National Academy of Sciences of the …, 2022)

Columns and labels:
ctPrp43 (Prp43) = target: T1, ctPrp43 (Prp43) (Thermochaetoides thermophila, UniProt G0RY84); experiment: coupled ATPase assay, NADH absorption, Michaelis-Menten titration; format: biochemical; settings: no Pfa1(gp), no ssRNA
T1 construct: gene CTHT_0005780; expressed in E. coli Rosetta II as N-terminal GST fusion with C-terminal His6 or Strep tag; SEC purified; borders in SI
T1 sequence (G0RY84 entry or part of it): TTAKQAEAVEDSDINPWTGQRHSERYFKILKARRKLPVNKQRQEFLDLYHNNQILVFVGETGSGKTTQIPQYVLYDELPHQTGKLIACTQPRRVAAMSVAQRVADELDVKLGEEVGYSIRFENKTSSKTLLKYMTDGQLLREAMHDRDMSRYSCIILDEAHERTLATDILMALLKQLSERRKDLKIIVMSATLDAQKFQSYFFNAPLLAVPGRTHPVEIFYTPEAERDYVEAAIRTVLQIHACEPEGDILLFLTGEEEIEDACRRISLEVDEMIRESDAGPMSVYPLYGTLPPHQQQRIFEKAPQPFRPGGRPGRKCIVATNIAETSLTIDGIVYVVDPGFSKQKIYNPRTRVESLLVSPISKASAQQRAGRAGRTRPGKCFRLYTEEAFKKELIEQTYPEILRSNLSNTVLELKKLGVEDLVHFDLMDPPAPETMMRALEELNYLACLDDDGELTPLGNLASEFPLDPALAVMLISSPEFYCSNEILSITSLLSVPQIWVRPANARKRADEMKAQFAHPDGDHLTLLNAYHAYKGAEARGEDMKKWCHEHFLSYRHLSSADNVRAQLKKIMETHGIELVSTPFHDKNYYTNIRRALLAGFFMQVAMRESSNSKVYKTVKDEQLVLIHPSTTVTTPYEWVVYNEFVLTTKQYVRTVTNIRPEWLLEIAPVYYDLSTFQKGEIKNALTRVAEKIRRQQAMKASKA
Source text: coupled ATPase assay, NADH absorption, Michaelis-Menten titration on ctPrp43 (Prp43) | Michaelis–Menten titration and table with ATP turnover numbers (kcat) and dissociation constants (KM)

ctPrp43–Pfa1(gp) complex = target: T2, ctPrp43–Pfa1(gp) complex (Thermochaetoides thermophila, UniProt G0RY84); experiment: as above; format: biochemical; settings: with Pfa1(gp), no ssRNA
T2 construct: gene CTHT_0005780; Prp43 with C-terminal His6 or Strep tag plus isolated G-patch motif of Pfa1; both from E. coli Rosetta II as GST fusions; borders in SI; with G-patch protein Pfa1 (G-patch motif)
T2 sequence (G0RY84 entry or part of it, one chain of several): as the sequence (G0RY84 entry or part of it) above
Source text: coupled ATPase assay, NADH absorption, Michaelis-Menten titration on ctPrp43–Pfa1(gp) complex | showing the stimulation of Prp43 ATPase activity by Pfa1(gp) and ssRNA

Work on `Nc1ncnc2c1ncn2[C@@H]1O[C@H](COP(=O)(O)OP(=O)(O)OP(=O)(O)O)[C@@H](O)[C@H]1O` [ATP] yielded a Km (ctPrp43 (Prp43)) of 29.5 ± 6 µM and a Km (ctPrp43–Pfa1(gp) complex) of 4.5 ± 0.3 µM.
